Each structure is given as a SMILES string.

We go through 21 compounds from patent US8541410B2, “Sulfur substituted sulfonylaminocarboxylic acid N-arylamides, their preparation, their use and pharmaceutical preparations comprising them” (Sanofi-aventis Deutschland GmbH, priority 1998, dated 2013).

The target of this experiment is T1, soluble guanylate cyclase (sGC) (Bos taurus, UniProt P16068).
T1 construct: The sGC which was employed had been isolated from bovine lung; from tissue; host or cells: bovine lung
T1 sequence (P16068 1-619): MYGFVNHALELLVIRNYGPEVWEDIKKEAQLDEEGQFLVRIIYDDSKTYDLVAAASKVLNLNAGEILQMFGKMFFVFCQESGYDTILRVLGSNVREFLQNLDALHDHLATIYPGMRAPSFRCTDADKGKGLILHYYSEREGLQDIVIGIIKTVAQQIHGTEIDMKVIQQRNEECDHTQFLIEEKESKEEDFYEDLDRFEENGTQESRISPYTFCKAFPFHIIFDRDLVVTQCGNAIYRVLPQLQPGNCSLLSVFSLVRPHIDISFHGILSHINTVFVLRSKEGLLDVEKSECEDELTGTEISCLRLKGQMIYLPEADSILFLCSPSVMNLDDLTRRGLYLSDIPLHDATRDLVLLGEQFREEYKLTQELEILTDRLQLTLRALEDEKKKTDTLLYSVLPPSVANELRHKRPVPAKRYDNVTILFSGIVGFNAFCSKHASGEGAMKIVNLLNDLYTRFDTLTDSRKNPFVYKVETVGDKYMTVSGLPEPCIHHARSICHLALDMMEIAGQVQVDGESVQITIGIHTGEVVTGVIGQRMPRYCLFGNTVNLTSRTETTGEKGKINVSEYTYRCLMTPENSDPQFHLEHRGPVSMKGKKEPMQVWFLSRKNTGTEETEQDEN
T1 sequence (P19687 1-691 partner): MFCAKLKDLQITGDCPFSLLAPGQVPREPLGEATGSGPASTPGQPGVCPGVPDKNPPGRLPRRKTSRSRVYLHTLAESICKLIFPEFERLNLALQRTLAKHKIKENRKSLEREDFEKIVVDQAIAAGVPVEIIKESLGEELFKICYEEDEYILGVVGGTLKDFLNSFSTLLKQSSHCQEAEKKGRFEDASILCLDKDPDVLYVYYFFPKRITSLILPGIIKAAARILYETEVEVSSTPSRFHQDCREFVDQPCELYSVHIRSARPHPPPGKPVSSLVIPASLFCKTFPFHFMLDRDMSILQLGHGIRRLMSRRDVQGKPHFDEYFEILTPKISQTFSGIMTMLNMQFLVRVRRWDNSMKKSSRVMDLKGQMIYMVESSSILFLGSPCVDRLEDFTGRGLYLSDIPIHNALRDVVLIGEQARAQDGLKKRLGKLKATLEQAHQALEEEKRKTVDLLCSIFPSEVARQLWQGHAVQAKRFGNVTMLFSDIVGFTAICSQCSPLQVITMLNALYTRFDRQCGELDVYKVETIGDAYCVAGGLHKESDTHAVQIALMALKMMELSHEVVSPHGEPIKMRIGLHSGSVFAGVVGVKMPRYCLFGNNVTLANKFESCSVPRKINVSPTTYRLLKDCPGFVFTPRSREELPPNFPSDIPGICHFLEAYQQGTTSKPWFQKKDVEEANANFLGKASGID
The experiment in a line: Activation of the soluble guanylate cyclase (cGMP enzyme immunoassay). It is filed as biochemical, bovine. To be noted: concentration c 50 μM; n-fold stimulation of basal enzyme activity. As to the method:
The activation of the soluble guanylate cyclase (sGC) which catalyzes the conversion of guanosine triphosphate (GTP) into cyclic guanosine monophosphate (cGMP) and pyrophosphate, by the compounds according to the invention was quantified with the aid of an enzyme immunoassay (EIA) from Amersham. For this purpose the substances to be tested were initially incubated with sGC in microtiter plates, and the amount of the cGMP formed was then determined.
The sGC which was employed had been isolated from bovine lung (see Methods in Enzymology, Volume 195, p. 377). The test solutions (100 μl per well) contained 50 mM triethanolamine (TEA) buffer (pH 7.5), 3 mM MgCl2, 3 mM reduced glutathione (GSH), 0.1 mM GTP, 1 mM 3-isobutyl-1-methylxanthine (IBMX), suitably diluted enzyme solution and the substance to be tested or, in the control experiments, the solvent. The substances to be tested were dissolved in dimethyl sulfoxide (DMSO) and the solution was diluted with DMSO/water, so that the final concentration (c) of the substance to be tested in the test solution had the value indicated in the table. The DMSO concentration in the test solution was 5% (v/v). The reaction was initiated by addition of the sGC. The reaction mixture was incubated at 37° C. for 15 to 20 minutes and then stopped by ice-cooling and addition of the stop reagent (50 mM EDTA, pH 8.0). An aliquot of 50 μl was taken and used for determining the cGMP content using the acetylation protocol of the Amersham cGMP-EIA kit. The absorption of the samples was measured at 450 nm (reference wavelength 620 nm) in a microtiter plate reader. The cGMP concentration was determined using a standard curve which was obtained under the same test conditions. The activation of sGC by a test substance is given as the n-fold stimulation of the basal enzyme activity which was found in the control experiments (using solvent instead of test substance) (calculated using the formula n-fold stimulation=[cGMP]test substance/[cGMP]control).
Consider `CSc1ccc(NC(=O)c2cc(Cl)ccc2NS(=O)(=O)c2ccc(Cl)cc2)cc1` [Example 23, 5-Chloro-2-(4-chloro-phenylsulfonylamino)-N-(4-methylmercapto-phenyl)-benzamide], for which the n-fold stimulation was 14.7.

For the compound `O=C(Nc1ccc(S(=O)(=O)N2CCSCC2)cc1)c1cc(Cl)ccc1NS(=O)(=O)c1ccc(Cl)cc1` [Example 63, 5-Chloro-2-(4-chloro-phenylsulfonylamino)-N-(4-(thiomorpholine-4-sulfonyl)-phenyl)-benzamide], the n-fold stimulation is on record as 33.9. Under `CN1CCN(S(=O)(=O)c2ccc(NC(=O)c3cc(Cl)ccc3NS(=O)(=O)c3ccc(Cl)cc3)cc2)CC1` [Example 64, 5-Chloro-2-(4-chloro-phenylsulfonylamino)-N-(4-(4-methyl-piperazine-1-sulfonyl)-phenyl)-benzamide] stands 23.9; under `CC1CN(S(=O)(=O)c2ccc(NC(=O)c3cc(Cl)ccc3NS(=O)(=O)c3ccc(Cl)cc3)cc2)CC(C)O1` (stereo not drawn) [Example 65, 5-Chloro-2-(4-chloro-phenylsulfonylamino)-N-(4-(2,6-dimethyl-morpholine-4-sulfonyl)-phenyl)-benzamide], 24.6.

The compound `C[C@@H]1CN(S(=O)(=O)c2ccc(NC(=O)c3cc(Cl)ccc3NS(=O)(=O)c3ccc(Cl)cc3)cc2)C[C@H](C)O1` [Example 66, 5-Chloro-2-(4-chloro-phenylsulfonylamino)-N-(4-(cis-2,6-dimethyl-morpholine-4-sulfonyl)-phenyl)-benzamide] returned a n-fold stimulation of 33. The figure for `O=C(Nc1ccc(S(=O)(=O)N2CCC(O)CC2)cc1)c1cc(Cl)ccc1NS(=O)(=O)c1ccc(Cl)cc1` [Example 67, 5-Chloro-2-(4-chloro-phenylsulfonylamino)-N-(4-(4-hydroxy-piperidine-1-sulfonyl)-phenyl)-benzamide] is 29.6; for `O=C(Nc1ccc(S(=O)(=O)N2CCC3(CC2)OCCO3)cc1)c1cc(Cl)ccc1NS(=O)(=O)c1ccc(Cl)cc1` [Example 68, 5-Chloro-2-(4-chloro-phenylsulfonylamino)-N-(4-(1,4-dioxa-8-aza-spiro[4.5]decane-8-sulfonyl)-phenyl)-benzamide] it is 12.1. The figure for `O=C(Nc1ccc(S(=O)(=O)N2CCOCC2)cc1)c1cc(Cl)ccc1NS(=O)(=O)c1ccc(Cl)c(Cl)c1` [Example 69, 5-Chloro-2-(3,4-dichloro-phenylsulfonylamino)-N-(4-(morpholine-4-sulfonyl)-phenyl)-benzamide] is 28.3; for `O=C(Nc1ccc(S(=O)(=O)N2CCSCC2)cc1)c1cc(Cl)ccc1NS(=O)(=O)c1ccc(Cl)c(Cl)c1` [Example 70, 5-Chloro-2-(3,4-dichloro-phenylsulfonylamino)-N-(4-(thiomorpholine-4-sulfonyl)-phenyl)-benzamide] it is 25.1; for `CN1CCN(S(=O)(=O)c2ccc(NC(=O)c3cc(Cl)ccc3NS(=O)(=O)c3ccc(Cl)c(Cl)c3)cc2)CC1` [Example 71, 5-Chloro-2-(3,4-dichloro-phenylsulfonylamino)-N-(4-(b4-methyl-piperazine-1-sulfonyl)-phenyl)-benzamide] it is 13.4. The figure for `COc1cc(NS(=O)(=O)c2ccc(Cl)cc2)c(C(=O)Nc2ccc(S(=O)(=O)N3CCOCC3)cc2)cc1OC` [Example 72, 2-(4-Chloro-phenylsulfonylamino)-4,5-dimethoxy-N-(4-(morpholine-4-sulfonyl)-phenyl)-benzamide] is 27. The compound `O=C(Nc1ccc(S(=O)(=O)N2CCN(CCO)CC2)cc1)c1cc(Cl)ccc1NS(=O)(=O)c1ccc(Cl)cc1` [Example 73, 5-Chloro-2-(4-chloro-phenylsulfonylamino)-N-(4-(4-(2-hydroxy-ethyl)-piperazine-1-sulfonyl)-phenyl)-benzamide] had a n-fold stimulation of 16.5. For the compound `CCN(CC)S(=O)(=O)c1ccc(NC(=O)c2cc(Cl)ccc2NS(=O)(=O)c2ccc(Cl)cc2)cc1` [Example 75, 5-Chloro-2-(4-chloro-phenylsulfonylamino)-N-(4-diethylsulfamoyl-phenyl)-benzamide], the n-fold stimulation was determined as 5.1.

In turn, `O=C(Nc1ccc(S(=O)(=O)N2CCCCC2)cc1)c1cc(Cl)ccc1NS(=O)(=O)c1ccc(Cl)cc1` [Example 76, 5-Chloro-2-(4-chloro-phenylsulfonylamino)-N-(4-(piperidine-1-sulfonyl)-phenyl)-benzamide] came in with a n-fold stimulation of 10.6. The figure for `COCCNS(=O)(=O)c1ccc(NC(=O)c2cc(Cl)ccc2NS(=O)(=O)c2ccc(Cl)cc2)cc1` [Example 77, 5-Chloro-2-(4-chloro-phenylsulfonylamino)-N-(4-(2-methoxy-ethylsulfamoyl)-phenyl)-benzamide] is 5.9; for `O=C(Nc1ccc(S(=O)(=O)N2CCOCC2)cc1)c1sccc1NS(=O)(=O)c1ccc(Cl)cc1` [Example 79, 3-(4-Chloro-phenylsulfonylamino)-N-(4-(morpholine-4-sulfonyl)-phenyl)-thiophene-2-carboxamide] it is 15.4; for `O=C(Nc1ccc(S(=O)(=O)N2CCSCC2)cc1)c1sccc1NS(=O)(=O)c1ccc(Cl)cc1` [Example 84, 3-(4-Chloro-phenylsulfonylamino)-N-(4-(thiomorpholine-4-sulfonyl)-phenyl)-thiophene-2-carboxamide] it is 23.7. The figure for `Cc1ccc(NS(=O)(=O)c2ccc(Cl)cc2)c(C(=O)Nc2ccc(S(=O)(=O)N3CCSCC3)cc2)c1` [Example 86, 2-(4-Chloro-phenylsulionylamino)-5-methyl-N-(4-(thiomorpholine-4-sulfonyl)-phenyl)-benzamide] is 32.9. For `COc1cc(NS(=O)(=O)c2ccc(Cl)cc2)c(C(=O)Nc2ccc(S(=O)(=O)N3CCN(C)CC3)cc2)cc1OC` [Example 87, 2-(4-Chloro-phenylsulfonylamino)-4,5-dimethoxy-N-(4-(4-methyl-piperazine-1-sulfonyl)-phenyl)-benzamide], the n-fold stimulation amounted to 12.5. The figure for `COc1cc(NS(=O)(=O)c2ccc(Cl)cc2)c(C(=O)Nc2ccc(S(=O)(=O)N3CCC(O)CC3)cc2)cc1OC` [Example 89, 2-(4-Chloro-phenylsulfonylamino)-N-(4-(4-hydroxy-piperidine-1-sulfonyl)-phenyl)-4,5-dimethoxy-benzamide] is 11.6; for `Cc1nn(C)c(Cl)c1S(=O)(=O)Nc1ccc(Cl)cc1C(=O)Nc1ccc(S(=O)(=O)N2CCSCC2)cc1` [Example 124, 5-Chloro-2-(5-chloro-1,3-dimethyl-1H-pyrazole-4-sulfonyl-amino)-N-(4-(thiomorpholine-4-sulfonyl)-phenyl)-benzamide] it is 31.2.
